Reference: paper PMC11251039, “Harnessing cholesterol uptake of malaria parasites for therapeutic applications” (EMBO Molecular Medicine, 2024)
Where “and” joins values, the source holds several entries; their conditions need not be identical. Equal values may be shown once. Read-outs that look alike come from different tables or passages of the source.

Columns and labels:
[1] = system: asexual P. falciparum 3D7 wild-type parasites; test: P. falciparum asexual growth inhibition assay (SYBR Safe DNA replication); assay type: cell-based, Plasmodium falciparum; set-up: Figure 5B dose-response source data (growth, replicate values): unit not given here; details: for Figure 5B dose-response source data (growth, replicate values): individual replicates; for IC50: 72 h, read-out: IC50, P. falciparum asexual growth inhibition
Experimental: P. falciparum asexual parasite assays commenced with ring-stage parasites at 1% parasitaemia and 1% haematocrit. 200 nM chloroquine (Sigma C6628) or artesunate (Sigma A3731) was used as a no-growth control. DNA replication (indicating growth) was measured at the specified time using SYBR Safe DNA Gel Stain (Invitrogen 33102) and a fluorescence microplate reader (Smilkstein et al, [2004]; Spry et al, [2013]). […]
Growth and Viability Inhibition Assays:
Plasmodium falciparum Growth Inhibition Assays:
P. falciparum parasites were maintained under routine culture conditions in red blood cells and RPMI 1640-Hepes with Glutamax, supplemented with 10 mM D-glucose, 480 μM hypoxanthine, 20 μg/mL gentamicin, 0.375% (w/v) AlbuMAXTM II (Thermo Fisher 11021029), and 2.5% v/v heat-inactivated human serum (17). Cultures were maintained at 37 °C […]
wildtype parasites except for the ring stage survival assay, as specified. Cultures were synchronised with 5% w/v D-sorbitol (18).
Growth inhibition was investigated according to methods described by Smilkstein et al. (19) with modifications by Spry et al. (20). Compounds or solvent controls (DMSO, ethanol, or ethyl acetate) were serially diluted 2-fold across flat-bottom 96-well plates. Culture media without compound was used as a negative control. 200 nM chloroquine (Sigma C6628) or artesunate (Sigma A3731) was used as a positive control to determine background fluorescence. The parasitaemia of a culture containing predominantly ring stage parasites was counted by Giemsa smear. The parasitaemia was adjusted to 1% by addition of fresh uRBCs and added to the plate at a final haematocrit of 1%, with 200 µL per well. The plates were incubated at 37 °C under humid microaerophilic conditions. After 24, 48, or 72 hours, the plates were transferred to a -18 °C freezer to stop the assay and lyse cells. Plates were thawed and lysate was mixed 1:1 with SYBR Safe DNA Gel Stain (Invitrogen 33102) (final concentration 1/10,000) diluted in lysis buffer (20 mM TRIS, 5 mM EDTA, 0.008% w/v Saponin, 0.08% w/v Triton-X 100, pH 7.5). Fluorescence was detected at 490 nm excitation/ 520 nm emission on a FLUOstar Optima fluorescence plate reader (BMG Labtech).

[2] = system: human embryonic kidney cells (HEK293); test: Human embryonic kidney cell viability assay (MTT); assay type: cell-based; details: for Dose-response data points (Figure 5C): replicate data points; for IC50: 96 h, HEK293, read-out: IC50, human embryonic kidney cell inhibition (viability)
Experimental: HEK293 cell viability assays commenced with 5000 cells per well. 10 µg/mL cycloheximide was used as a no-growth control. Metabolic capacity (indicating viability) was measured in an absorbance microplate reader after incubation with 0.45 mg/mL methylthiazolyldiphenyl-tetrazolium bromide (MTT; Sigma M2128) for 2 h followed by crystal solubilisation in SDS. […]
Human Embryonic Kidney Cell Viability Assays:
Human Embryonic Kidney Cell (HEK293) culture:
The HEK293 cell line was maintained under routine culture conditions in DMEM containing 3.7 g/L NaHCO3 supplemented with 10% FBS, 200 μM glutamine, 100 units/mL penicillin, and 100 μg/mL streptomycin at 37 °C in a humidified 5% CO2 incubator.
Cells were detached from a flask using 0.25% Trypsin with 0.2 g/L EDTA (Sigma T4049) and washed with culture media containing no phenol red. Cells were incubated with a serial dilution of each compound, or media/DMSO alone. The protein synthesis inhibitor cycloheximide (Sigma 01810) at 10 µg/mL was used as a positive control to determine background absorbance. 5,000 cells were seeded in each well. After 96 hours, 0.45 mg/mL methylthiazolyldiphenyl-tetrazolium bromide (MTT; Sigma M2128) was added and incubated for a further two hours, before mixing 1.1:1 with 10% w/v sodium dodecyl sulfate (SDS) to solubilise crystals and freezing the plate at -18 °C to stop the assay. […]

[3] = Plasmodium falciparum, 3D7, 72 h

Row | Structure (SMILES) | Figure 5B dose-response source data (growth, replicate values) ([1]; Concentration 0.039063 uM) | Figure 5B dose-response source data (growth, replicate values) ([1]; Concentration 0.078125 uM) | Figure 5B dose-response source data (growth, replicate values) ([1]; Concentration 0.15625 uM) | Figure 5B dose-response source data (growth, replicate values) ([1]; Concentration 0.3125 uM) | Figure 5B dose-response source data (growth, replicate values) ([1]; Concentration 0.625 uM) | Figure 5B dose-response source data (growth, replicate values) ([1]; Concentration 1.25 uM) | Figure 5B dose-response source data (growth, replicate values) ([1]; Concentration 2.5 uM) | Figure 5B dose-response source data (growth, replicate values) ([1]; Concentration 5 uM) | Figure 5B dose-response source data (growth, replicate values) ([1]; Concentration 10 uM) | Figure 5B dose-response source data (growth, replicate values) ([1]; Concentration 12.5 uM) | Figure 5B dose-response source data (growth, replicate values) ([1]; Concentration 25 uM) | Dose-response data points (Figure 5C) ([2]; 3.125000 μM) | Dose-response data points (Figure 5C) ([2]; 6.250000 μM) | Dose-response data points (Figure 5C) ([2]; 12.500000 μM) | Dose-response data points (Figure 5C) ([2]; 25.000000 μM) | Dose-response data points (Figure 5C) ([2]; 50.000000 μM) | Dose-response data points (Figure 5C) ([2]; 100.000000 μM) | IC50 [1] | IC50 [1, 3] | IC50 ([2]; Homo sapiens) | other results
1 | CC(C)(C)OOCCO[C@H]1CC[C@H]2[C@@H]3CC=C4C[C@@H](O)CC[C@]4(C)[C@H]3CC[C@]12C [BC86D] | 101.2 and 93.9 and 88.17 and 67.71 and 70.53 and 73.82 and 95.83 and 90.15 and 93.44 | 97.22 and 94.27 and 90.34 and 67.69 and 67.82 and 69.83 and 95.38 and 88.24 and 94.29 | 96.36 and 93.34 and 87.86 and 61.44 and 62.01 and 63.2 and 95.83 and 94.74 and 95.36 | 73 and 78.58 and 67.15 and 39.54 and 44.2 and 46.55 and 91.73 and 92.12 and 93.7 | 35.28 and 38.38 and 34.74 and 19.93 and 23.01 and 29.36 and 61.25 and 65.6 and 67.6 | 21.76 and 22.71 and 19.11 and 8.627 and 13.04 and 18.09 and 18.17 and 19.23 and 20.29 | 14.75 and 15.93 and 13.24 and 1.608 and 6.601 and 8.38 and 7.495 and 10.61 and 8.324 | 10.45 and 16.02 and 6.128 and -6.852 and -3.181 and -0.1793 and 5.173 and 6.43 and 3.972 | 4.733 and -2.356 and 1.324 and -0.2487 and 0.35 and -1.359 and 1.305 and 0.4257 and 0.3494 | 2.181 and -0.01995 and -1.157 | 4.45 and 0.3217 and -1.979 | 115.5 and 95.86 and 88.3 and 98.59 and 112 and 99.93 and 104.6 and 105.3 and 96.8 and 121.6 and 126.6 and 132.2 | 96.33 and 95.87 and 97.03 and 100.5 and 103.4 and 96.23 and 94.82 and 98.4 and 99.62 and 111.9 and 133.1 and 110.9 | 82.46 and 90.77 and 77.92 and 80.03 and 95.9 and 97.58 and 94.64 and 94.52 and 89.57 and 87.62 and 85.62 and 86.13 | 69.58 and 78.66 and 69.32 and 83.79 and 87.18 and 91.53 and 75.15 and 72.67 and 65.58 and 76.71 and 79.77 and 75.18 | 3.07 and 5.347 and 9.422 and 2.15 and 5.359 and 78.86 and -3.535 and -3.352 and -3.7 and -3.023 and -3.058 and -2.513 | -1.036 and -1.804 and -2.143 and -2.292 and -2.356 and -1.995 and -3.811 and -3.706 and -3.888 and -2.988 and -3.04 and -3.163 | – | – | – | Figure 5B dose-response source data (growth, replicate values) ([1]; Concentration 0.019532 uM): 105.3 and 96.53 and 86.36 and 94.74 and 88.38 and 91.4
2 | CC(C)(C)OOCCO[C@H]1CC[C@H]2[C@@H]3CC=C4C[C@@H](O)CC[C@]4(C)[C@H]3CC[C@]12C [C-17-perox] | – | – | – | – | – | – | – | – | – | – | – | – | – | – | – | – | – | 0.5 µM | 0.48 µM | 31.3 µM | Fold difference in IC50 HEK293 compared to P. falciparum ([2]; 96 h HEK293 vs 72 h P. falciparum): ~ 60 fold
3 | C[C@]12CC[C@H](O)CC1=CC[C@@H]1[C@@H]2CC[C@]2(C)C(=O)CC[C@@H]12 [DHEA, Dehydroepiandrosterone] | – | – | – | – | – | – | – | – | – | 97.83 and 97.77 and 98.63 and 101.4 and 104.7 and 102.2 and 102.3 and 100.6 and 97.67 | 97.33 and 98.84 and 99.51 and 104.1 and 102.5 and 109.8 and 97.3 and 98.4 and 101.2 | 108.5 and 113.8 and 102.3 and 90.3 and 90.17 and 89.76 | 115 and 79.4 and 102.8 and 86.08 and 90.81 and 85.1 | 83.96 and 112.7 and 100.9 and 95.11 and 92.95 and 84.24 and 113.9 and 109.3 and 94.8 and 88.3 and 83.73 and 81.43 | 74.02 and 110.4 and 109.9 and 89.17 and 79.81 and 87.49 and 124 and 119.6 and 106.3 and 78.12 and 83.41 and 71.52 | 65.27 and 101.5 and 98.29 and 73.76 and 69.18 and 75.02 and 111.3 and 62.75 and 93.36 and 87.06 and 86.25 and 84.64 | 28.83 and 48.06 and 53.97 and 38.87 and 26.11 and 38.89 and 29.34 and 31.58 and 34.33 and 61 and 65.6 and 64 | – | 150 µM | 88.5 µM | Figure 5B dose-response source data (growth, replicate values) ([1]; Concentration 1.5625 uM): 105 and 100.9 and 101.2 (2×) and 104.8 and 107.1 and 104 and 104.2 and 97.24; Figure 5B dose-response source data (growth, replicate values) ([1]; Concentration 3.125 uM): 99.54 and 98.59 and 99.35 and 103.6 and 96.02 and 105.9 and 103.9 and 101.1 and 100.2; Figure 5B dose-response source data (growth, replicate values) ([1]; Concentration 6.25 uM): 94.64 and 99.33 and 101.7 and 100.2 (2×) and 103.5 and 102.7 and 100.1 and 101.2; Figure 5B dose-response source data (growth, replicate values) ([1]; Concentration 50 uM): 91.17 and 88.79 and 89.21 and 91.36 and 96.36 and 97.35 and 94.23 and 92.68 and 93.65; Figure 5B dose-response source data (growth, replicate values) ([1]; Concentration 100 uM): 80.03 and 78.97 and 77.22 and 68.91 and 88.77 and 89.83 and 76.17 and 73.25 and 71.62; Figure 5B dose-response source data (growth, replicate values) ([1]; Concentration 200 uM): 36.08 and 37.08 and 31 and 29.85 and 51.4 and 44.23 and 15.92 and 13.39 and 11.5; Figure 5B dose-response source data (growth, replicate values) ([1]; Concentration 400 uM): 0.02245 and -0.2944 and -1.594 and 1.899 and 4.652 and 1.525 and -5.885 and -7.232 and -8.092; Dose-response data points (Figure 5C) ([2]; 200.000000 μM): -0.4301 and 3.655 and 7.381 and -0.1582 and -0.5868 and -0.7801 and -3.647 and -3.757 and -3.702 and -0.3542 and 0.648 and 0.1847; Dose-response data points (Figure 5C) ([2]; 400.000000 μM): -1.929 and -2.654 and -2.355 and -0.05272 and -1.637 and -1.302 and -3.718 and -4.096 and -4.009 and -3.542 and -3.411 and -3.648
4 | CC(C)(C)OOC(C)(C)C [Di-tert-butyl peroxide, di-tert-butyl peroxide, reference compound] | 85.18 and 102.4 and 102.7 | 74.12 and 92.74 and 101.2 | 95.05 and 90.78 and 92.5 and 91.43 and 92.81 and 96.62 and 92.25 and 92.33 and 93.69 | 87.88 and 89.77 and 89.55 and 85.58 and 96.69 and 99.28 and 97.57 and 87.06 and 96.72 | 89.02 and 90.9 and 80.19 and 84.44 and 92.83 and 101.4 and 93.27 and 93.75 and 89.82 | 89.1 and 88.53 and 87.02 and 94.06 and 87.75 and 98.34 and 95.66 and 89.13 and 92.05 | 90.99 and 88.19 and 94.1 and 84.35 and 90.32 and 96.8 and 92.38 and 90.3 and 90.14 | 88.2 and 86.72 and 93.06 and 89.82 and 70.14 and 95.75 and 93.09 and 90.02 and 87.03 | 83.27 and 83.85 and 83.43 and 96.65 and 93.69 and 94.13 and 91.37 and 89.09 and 89.4 | 105.9 and 89.05 and 98.44 | 103.6 and 101.6 and 94.82 | – | – | – | – | – | – | > 25 µM | – | – | Figure 5B dose-response source data (growth, replicate values) ([1]; Concentration 0.1953125 uM): 104.7 and 100.3 and 94.44; Figure 5B dose-response source data (growth, replicate values) ([1]; Concentration 0.390625 uM): 99.53 and 101.7 and 93.86; Figure 5B dose-response source data (growth, replicate values) ([1]; Concentration 0.78125 uM): 99.16 and 101.8 and 97.31; Figure 5B dose-response source data (growth, replicate values) ([1]; Concentration 1.5625 uM): 96.44 and 101 and 94.23; Figure 5B dose-response source data (growth, replicate values) ([1]; Concentration 3.125 uM): 98.75 and 99.8 and 93.33; Figure 5B dose-response source data (growth, replicate values) ([1]; Concentration 6.25 uM): 99.66 and 102.1 and 96.08; IC50 [2]: > 100 µM
